# According to US10807994B2, “Heterocyclic compounds and uses thereof” (NUVATION BIO INC., priority 2017, dated 2020):
# Read-outs that look alike come from different tables or passages of the source.
# What was measured:
# A549 cells = test: Cytotoxicity assay (resazurin), A549 cells, 96 hr; format: cell-based; conditions: read-out: Cell Viability A549 IC50
# Experimental: (§1) A549 (CCL-185; ATCC) and A427 (HTB-53; ATCC), both lung epithelial cell lines were seeded in their respective medium (DMEM/MEM, 10569044/41090101; Gibco) at a cell count of 1500 cells per 100 μL per well in a 96 well edge plate (167425; ThermoFisher). Cells were allowed to grow at 37° C. for 24 hr in 5% CO2 environment (culture conditions) in a Nuaire incubator (humidified). Serially diluted test compounds (100 μL) within the desired testing concentration ranges were added to the culture plate were further incubated in culture conditions for 72 hr and 96 hr for A427 and A549 respectively. The experiment was terminated at the designated incubation time by replacing the medium with 100 μL of 1 mM of resazurin (R7017; Sigma) prepared in respective culture medium, and the plates were further incubated in culture conditions for 4-6 hr. Fluorescence was recorded using a multimodal plate reader (Biotek Synergy Neo) at an excitation wavelength of 535 nm and emission wavelength of 590 nm to obtain relative fluorescence units. Data analysis was done by subtracting the background fluorescence (only medium blank) value from each reading and then normalizing with the vehicle control (DMSO treated cells) to obtain percent survival/proliferation. Percent survival was then subtracted by 100 to get the percent inhibition of proliferation which was used to calculate IC50 values. Potency of compounds in other cell lines (As-Pc-1, Panc-10.05, MDAMB231, A172) was determined in an analogous manner.
# WEE1 kinase enzyme = WEE1 kinase enzyme (Homo sapiens (Human), UniProt P30291); test: WEE1 IC50 determination, LanthaScreen Terbium labeled TR-FRET kinase assay; format: biochemical; conditions: WEE1 enzyme 1 nM
# Experimental: IC50 values of compounds against WEE1 kinase enzyme were determined by LanthaScreen™ Terbium Labeled TR-FRET assay. Kinase assays were performed in 1× kinase buffer (# PV6135, Invitrogen, Life Technologies Grand Island, N.Y.) where total reaction volume was 10 μl in low-volume 384-well plates (#4511, Corning). Serially diluted compounds (3-fold) were incubated with WEE1 Enzyme (1 nM) (# PR7373A, Invitrogen, Life Technologies Grand Island, N.Y.) for 10 min, following which a mixture of ATP […] (# A1852, Sigma, St-Louis, Mo.) and fluorescent-PolyGT substrate (200 nM) (# PV3610, Invitrogen, Life Technologies Grand Island, N.Y.) was added and incubated in dark at room temperature for 1 h. After 1 h, 10 μl stop solution containing Terbium labeled antibody (4 nM) (# PV3529, Invitrogen, Life Technologies Grand Island, N.Y.) and EDTA (# E5134, Sigma, St-Louis, Mo.) (20 mM) in TR-FRET dilution buffer (# PV3574, Invitrogen, Life Technologies Grand Island, N.Y.) was added. Readings were taken in a Synergy Neo Plate reader (BioTek, Winooski) at single excitation of 340 nm and Dual emission at 495 nm and 520 nm respectively.
# The % activity of test samples was calculated as (Sample−Min)*100/(Max−Min). [Max: DMSO control, complete reaction with enzyme & DMSO and Min: No enzyme & DMSO]. Percent inhibition (100-% activity) was fitted to the “four-parameter logistic model” in XLfit for determination of IC50 values.
# A427 cells = test: Cytotoxicity assay (resazurin), A427 cells, 72 hr; format: cell-based; conditions: Homo sapiens, A-427, read-out: Cell Viability A427 IC50
# Experimental: as §1
# Sequence of WEE1 kinase enzyme (P30291 whole entry): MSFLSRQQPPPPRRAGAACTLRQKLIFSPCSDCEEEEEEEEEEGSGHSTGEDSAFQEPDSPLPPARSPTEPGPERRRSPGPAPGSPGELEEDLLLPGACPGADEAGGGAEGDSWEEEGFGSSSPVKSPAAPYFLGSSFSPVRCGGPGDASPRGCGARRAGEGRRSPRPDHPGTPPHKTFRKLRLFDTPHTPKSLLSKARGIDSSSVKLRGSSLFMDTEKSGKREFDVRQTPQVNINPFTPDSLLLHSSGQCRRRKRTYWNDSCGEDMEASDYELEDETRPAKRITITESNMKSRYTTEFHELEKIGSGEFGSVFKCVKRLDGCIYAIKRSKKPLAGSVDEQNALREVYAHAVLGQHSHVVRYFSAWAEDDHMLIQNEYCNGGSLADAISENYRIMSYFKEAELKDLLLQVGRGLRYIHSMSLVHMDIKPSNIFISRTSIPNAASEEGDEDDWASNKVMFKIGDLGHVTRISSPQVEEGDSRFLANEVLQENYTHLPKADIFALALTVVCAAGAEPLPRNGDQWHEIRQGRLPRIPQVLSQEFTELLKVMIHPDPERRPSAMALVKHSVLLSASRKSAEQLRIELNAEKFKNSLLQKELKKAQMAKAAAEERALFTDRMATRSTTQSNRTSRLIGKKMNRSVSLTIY
SMILES,IC50 (A549 cells; Homo sapiens),IC50 (WEE1 kinase enzyme),IC50 (A549 cells),IC50 (A427 cells)
"Cc1cccc(Cl)c1N1COc2nc(Nc3ccc(N4CCNCC4)cc3)ncc2C1=O [Example 1.30, 3-(2-chloro-6-methylphenyl)-7-((4-(piperazin-1-yl)phenyl)amino)-2,3-dihydro-4H-pyrimido[5,4-e][1,3]oxazin-4-one]",8650 nM,325 nM,,
O=C1c2cnc(Nc3ccc(N4CCNCC4)c(F)c3)nc2OCN1c1c(Cl)cccc1Cl [Example 1.29],8880 nM,212 nM,,
CN1Cc2cc(Nc3ncc4c(n3)OCN(c3c(Cl)cccc3Cl)C4=O)ccc2C(C)(C)C1 [Example 1.4],5740 nM,9 nM,,
"CN1CCN(c2ccc(Nc3cc4c(cn3)C(=O)N(c3c(Cl)cccc3Cl)CO4)cc2)CC1 [Example 1.32, 3-(2,6-dichlorophenyl)-7-(4-(4-methylpiperazin-1-yl)phenylamino)-2H-pyrido[3,4-e][1,3]oxazin-4(3H)-one]",,366 nM,7430 nM,
"O=C1CNCCN1c1ccc(Nc2ncc3c(n2)OCN(c2c(Cl)cccc2Cl)C3=O)cc1 [Example 1.41, 3-(2,6-dichlorophenyl)-7-((4-(2-oxopiperazin-1-yl)phenyl)amino)-2,3-dihydro-4H-pyrimido[5,4-e][1,3]oxazin-4-one]",> 30000 nM,791 nM,,
"CN1CCc2ccc(Nc3ncc4c(n3)OCN(c3c(Cl)cccc3Cl)C4=O)cc2C1 [Example 1.35, 3-(2,6-dichlorophenyl)-7-(2-methyl-1,2,3,4-tetrahydroisoquinolin-7-ylamino)-2H-pyrimido[5,4-e][1,3]oxazin-4(3H)-one]",11100 nM,35 nM,,
"O=C1c2cnc(Nc3ccc(N4CCNCC4)cc3)nc2OCN1c1c(F)cccc1F [Example 1.39, 3-(2,6-difluorophenyl)-7-(4-(piperazin-1-yl)phenylamino)-2H-pyrimido[5,4-e][1,3]oxazin-4(3H)-one]",10400 nM,540 nM,,
"O=C1c2cnc(Nc3ccc4c(c3)CCNC4)nc2OCN1c1c(Cl)cccc1Cl [Example 1.44, 3-(2,6-dichlorophenyl)-7-(1,2,3,4-tetrahydroisoquinolin-6-ylamino)-2H-pyrimido[5,4-e][1,3]oxazin-4(3H)-one]",5790 nM,23 nM,,
"CN1CCN(c2ccc(Nc3ncc4c(n3)OCN(c3c(Cl)cncc3Cl)C4=O)cc2)CC1 [Example 1.43, 3-(3,5-dichloropyridin-4-yl)-7-(4-(4-methylpiperazin-1-yl)phenylamino)-2H-pyrimido[5,4-e][1,3]oxazin-4(3H)-one]",22100 nM,479 nM,,
CC1CNCCN1c1ccc(Nc2ncc3c(n2)SCN(c2c(Cl)cccc2Cl)C3=O)cc1Cl (centres unmarked) [Example 1.243],,948 nM,,625 nM
O=C1c2cnc(Nc3ccc(N4CCCNCC4)cc3)nc2OCN1c1c(Cl)cccc1Cl [Example 1.61],,110 nM,,4120 nM
CN(C)C1CCN(c2ccc(Nc3ncc4c(n3)SCN(c3c(F)cccc3Cl)C4=O)cc2Cl)CC1 [Example 1.245],,297 nM,,1140 nM
O=C1c2cnc(Nc3ccc(N4CCNC(CO)C4)cc3)nc2OCN1c1c(Cl)cccc1Cl (centres unmarked) [Example 1.96],,47 nM,,5890 nM
CN(C)Cc1c[nH]c2cc(Nc3ncc4c(n3)OCN(c3c(Cl)cccc3Cl)C4=O)ccc12 [Example 1.107],,110 nM,,7700 nM
O=C1c2cnc(Nc3ccc4c(c3)NCCC4)nc2OCN1c1c(Cl)cccc1Cl [Example 1.121],,501 nM,,7330 nM
CN(C)C1CCN(c2ccc(Nc3ncc4c(n3)SCN(c3c(Cl)cccc3Cl)C4=O)cc2Cl)CC1 [Example 1.240],,303 nM,,1640 nM
CN(c1ccc(N2CCNCC2)cc1)c1ncc2c(n1)OCN(c1c(Cl)cccc1Cl)C2=O [Example 1.104],,> 5000 nM,,27800 nM
O=C1c2cnc(Nc3ccc4c(c3)CCCN4)nc2OCN1c1c(Cl)cccc1Cl [Example 1.224],,232 nM,,12100 nM
O=C1c2cnc(Nc3ccc4[nH]ccc4c3)nc2OCN1c1c(Cl)cccc1Cl [Example 1.175],,66 nM,,22000 nM
